Assay results reported in article PMC9951321.
Values after ≈ are worked out from the molar mass of the structure shown. Where a SMILES comes first, the peptide text is derived from it.

Tests used:
E. coli [1] = experiment: K+ out-diffusion, atomic absorption spectrometry; conditions: 4 × MIC, 1 h; untreated 13.47 µg mL^−1; n = 3
E. coli [2] = experiment: PGN integrity assay (susceptibility to lysozyme-mediated lysis); conditions: cells grown with 0.625 µmol L^−1 (1/4 × MIC); 1 mg mL^−1 lysozyme, within 20 min incubation, 25 °C
[3] = test system: Staphylococcus aureus MRSA ATCC 43300; experiment: MIC, broth micro-dilution; assay type: cell-based; conditions: 24 h
[4] = test system: Klebsiella pneumoniae ATCC 13883; experiment: MIC, broth micro-dilution; assay type: cell-based
[5] = test system: Pseudomonas aeruginosa ATCC 10145; experiment: MIC, broth micro-dilution; assay type: cell-based
[6] = test system: Escherichia coli ATCC 8739; experiment: MIC, broth micro-dilution; assay type: cell-based
[7] = test system: Salmonella Typhimurium ATCC 14028; experiment: MIC, broth micro-dilution; assay type: cell-based; conditions: 24 h
[8] = test system: Acinetobacter baumannii ATCC 17978; experiment: MIC, broth micro-dilution; assay type: cell-based
[9] = test system: Staphylococcus aureus ATCC 25923; experiment: MIC, broth micro-dilution; assay type: cell-based
Escherichia coli MDR = experiment: MIC, broth micro-dilution; assay type: cell-based; conditions: for MIC: 24 h; for MIC against E. coli MDR relative to wild-type E. coli strains: fold higher than those of wild-type E. coli strains
[10] = test system: Enterococcus faecium ATCC 19434; experiment: MIC, broth micro-dilution; assay type: cell-based
[11] = test system: Enterobacter cloacae ATCC 13047; experiment: MIC, broth micro-dilution; assay type: cell-based

## CC[C@H](C)[C@H](NC(=O)[C@@H](N)CCCNC(=N)N)C(=O)N[C@@H](CCCCN)C(=O)N[C@H](C(=O)N[C@@H](C)C(=O)N[C@H](C(=O)N[C@@H](Cc1c[nH]c2ccccc12)C(=O)N[C@@H](CCCNC(=N)N)C(=O)N[C@@H](CC(C)C)C(=O)N[C@@H](C)C(=O)N[C@@H](CC(C)C)C(=O)N[C@@H](CCCNC(=N)N)C(=O)N[C@@H](Cc1c[nH]c2ccccc12)C(=O)N[C@@H](CC(C)C)C(=O)N[C@@H](CCCCN)C(=O)N[C@@H](CC(C)C)C(=O)O)[C@@H](C)O)[C@@H](C)O [KTA] (H-RIKTATWRLALRWLKL-OH)
E. coli [1]
  Extracellular K^+ content: 18.92 µg/mL
E. coli [2]
  Reduction of OD600 nm of treated cells with lysozyme: 17.2%

## CC[C@H](C)[C@H](NC(=O)[C@@H](N)CCCNC(=N)N)C(=O)N[C@@H](CCCCN)C(=O)N[C@H](C(=O)N[C@@H](CCCNC(=N)N)C(=O)N[C@H](C(=O)N[C@@H](Cc1c[nH]c2ccccc12)C(=O)N[C@@H](CCCNC(=N)N)C(=O)N[C@@H](CC(C)C)C(=O)N[C@@H](C)C(=O)N[C@@H](CC(C)C)C(=O)N[C@@H](CCCNC(=N)N)C(=O)N[C@@H](Cc1c[nH]c2ccccc12)C(=O)N[C@@H](CC(C)C)C(=O)N[C@@H](CCCCN)C(=O)N[C@@H](CC(C)C)C(=O)O)[C@@H](C)O)[C@@H](C)O [KTR] (H-RIKTRTWRLALRWLKL-OH)
E. coli [1]
  Extracellular K^+ content: 21.53 µg/mL

## NC[C@H]1O[C@H](O[C@H]2[C@H](O)[C@@H](O[C@H]3O[C@H](CO)[C@@H](O)[C@H](N)[C@H]3O)[C@H](N)C[C@@H]2N)[C@H](N)C[C@@H]1O [Tob, tobramycin]
[3]; Staphylococcus aureus
  MIC: 548 µM (≈ 256 µg/mL)
[4]; Klebsiella pneumoniae, ATCC13883, 24 h
  MIC: 2.1 µM (≈ 0.982 µg/mL)
[5]; Pseudomonas aeruginosa, ATCC10145, 24 h
  MIC: 4.3 µM (≈ 2.01 µg/mL)
[6]; Escherichia coli, ATCC8739, 24 h
  MIC: 4.3 µM (≈ 2.01 µg/mL)
[7]; Salmonella enterica
  MIC: 17.1 µM (≈ 7.99 µg/mL)
[8]; Acinetobacter baumannii, ATCC17978, 24 h
  MIC: 2.1 µM (≈ 0.982 µg/mL)
[9]; Staphylococcus aureus, ATCC25923, 24 h
  MIC: 17.1 µM (≈ 7.99 µg/mL)
Escherichia coli MDR; Escherichia coli
  MIC: 548 µM (≈ 256 µg/mL)
Escherichia coli MDR
  MIC against E. coli MDR relative to wild-type E. coli strains: at least 128 fold
[10]; Enterococcus faecium, ATCC19434, 24 h
  MIC: 274 µM (≈ 128 µg/mL)
[11]; Enterobacter cloacae, ATCC13047, 24 h
  MIC: 2.1 µM (≈ 0.982 µg/mL)

## colistin
[3]; Staphylococcus aureus MRSA ATCC 43300, broth micro-dilution in MHB, 37 °C, triplicate
  MIC: 51.1 µM
[4]; Klebsiella pneumoniae ATCC 13883, broth micro-dilution in MHB, 37 °C, 24 h, triplicate
  MIC: 12.8 µM
[5]; Pseudomonas aeruginosa ATCC 10145, broth micro-dilution in MHB, 37 °C, 24 h, triplicate
  MIC: 6.4 µM
[6]; Escherichia coli ATCC 8739, broth micro-dilution in MHB, 37 °C, 24 h, triplicate
  MIC: 3.2 µM
[7]; Salmonella Typhimurium ATCC 14028, broth micro-dilution in MHB, 37 °C, triplicate
  MIC: 6.4 µM
[8]; Acinetobacter baumannii ATCC 17978, broth micro-dilution in MHB, 37 °C, 24 h, triplicate
  MIC: 1.6 µM
[9]; Staphylococcus aureus ATCC 25923, broth micro-dilution in MHB, 37 °C, 24 h, triplicate
  MIC: 12.8 µM
Escherichia coli MDR; Escherichia coli MDR, multi-drug resistant clinical isolate, broth micro-dilution in MHB, 37 °C, triplicate
  MIC: 102.1 µM
Escherichia coli MDR
  MIC against E. coli MDR relative to wild-type E. coli strains: ≥ 32 fold
[10]; Enterococcus faecium ATCC 19434, broth micro-dilution in MHB, 37 °C, 24 h, triplicate
  MIC: 204.2 µM
[11]; Enterobacter cloacae ATCC 13047, broth micro-dilution in MHB, 37 °C, 24 h, triplicate
  MIC: 204.2 µM
